Results from BindingDB's records for doi:10.1021/jm00391a032 (1987).

molecular target: Beta-lactamase/penicillinase (Bacillus sp.); test: Inhibitory activity against Beta-lactamase from Bacillus sp. using penicillin G as substrate

Point of comparison: `COC(=O)c1nnn(C[C@@]2(C)[C@H](C(=O)O)C3C(=O)CC3S2(=O)=O)c1C(=O)OC` (some centres not stated), IC50 300 nM. Against it:
- C[C@]1(Cn2cc(N)nn2)[C@H](C(=O)O)C2C(=O)CC2S1(=O)=O (some centres not stated) — 2.3-fold higher, 700 nM
- CCOC(=O)c1cn(C[C@@]2(C)[C@H](C(=O)O)C3C(=O)CC3S2(=O)=O)nn1 (some centres not stated) — 5.6-fold lower, 54 nM
- COC(=O)c1cnnn1C[C@@]1(C)[C@H](C(=O)O)C2C(=O)CC2S1(=O)=O (some centres not stated) — the same, 300 nM
- C[C@]1(Cn2nncc2C(=O)O)[C@H](C(=O)O)C2C(=O)CC2S1(=O)=O (some centres not stated) — 5.7-fold higher, 1700 nM
- C[C@]1(Cn2cc([Si](C)(C)C)nn2)[C@H](C(=O)O)C2C(=O)CC2S1(=O)=O (some centres not stated) — 1.7-fold higher, 510 nM
- CCOC(=O)c1cnnn1C[C@@]1(C)[C@H](C(=O)O)C2C(=O)CC2S1(=O)=O (some centres not stated) — within 1.5-fold, 340 nM
